Key:
Type in all cases: in vivo
IPOMOEA SPP. = test: Postemergence herbicidal evaluation, IPOSS (Morningglory spp.); conditions: for IPOSS, herbicide rating (0-9): rated four to five weeks after treatment, averaged
Experimental: (§1) In the tests, seedling plants are grown in jiffy flats for about two weeks. The test compounds are dispersed in 50/50 acetone/water mixtures containing 0.5% TWEEN®20, a polyoxyethylene sorbitan monolaurate surfactant of Atlas Chemical Industries, […] to the plants through a spray nozzle operating at 40 psi for a predetermined time. After spraying, the plants are placed on greenhouse benches and are cared for in the usual manner, commensurate with conventional greenhouse practices. From four to five weeks after treatment, the seedling plants are examined and rated according to the rating system set forth below. Where more than one test is involved for a given compound, the data are averaged.
(§2) Plant species employed in these evaluations are reported by header abbreviation, common name and scientific name.
(§3) Results of herbicide evaluation are expressed on a rating scale (0-9). The scale is based upon a visual observation of plant stand, vigor, malformation, size, chlorosis and overall plant appearance as compared with a control.

CHENOPODIUM ALBUM, L. [1] = test: Postemergence herbicidal evaluation, CHEAL (Lambsquarters, Common); conditions: for CHEAL, herbicide rating (0-9): rated four to five weeks after treatment, averaged
Experimental: as §1, §2, §3

[2] = system: ECHINOCHLOA CRUS-GALLI, (L) BEAU; test: Postemergence herbicidal evaluation, ECHCG (Barnyardgrass); parameters: key to ECHCG rating / Herbicidal effect rating, ECHCG / ECHCG: 0-9 visual rating scale vs untreated control
Experimental: (§4) In the tests, seedling plants are grown in jiffy flats for about two weeks. The test compounds are dispersed in 50/50 acetone/water mixtures containing 0.5% TWEEN®20, a polyoxyethylene sorbitan monolaurate surfactant of Atlas Chemical Industries, in sufficient quantities to provide the equivalent of about 0.125 kg to 0.500 kg per hectare of active compound when applied to the plants through a spray nozzle operating at 40 psi for a predetermined time. After spraying, the plants are placed on greenhouse benches and are cared for in the usual manner, commensurate with conventional greenhouse practices. From four to five weeks after treatment, the seedling plants are examined and rated according to the rating system set forth below. Where more than one test is involved for a given compound, the data are averaged.
as §2, §3

[3] = system: GLYCINE MAX(L) MERR. CV. WILLIAMS; test: Postemergence herbicidal evaluation, GLXMAW (Soybean, Williams); parameters: key to GLXMAW rating / Herbicidal effect rating, GLXMAW / GLXMAW: 0-9 visual rating scale vs untreated control
Experimental: as §4, §2, §3

[4] = system: SETARIA VIRIDIS, (L) BEAU; test: Postemergence herbicidal evaluation, SETVI (Foxtail, Green); parameters: key to SETVI rating / Herbicidal effect rating, SETVI / SETVI: 0-9 visual rating scale vs untreated control
Experimental: as §4, §2, §3

[5] = system: AMBROSIA ARTEMISIIFOLIA, L.; test: Postemergence herbicidal evaluation, AMBEL (Ragweed, Common)
Experimental: as §1, §2, §3

CHENOPODIUM ALBUM, L. [6] = test: Preemergence herbicidal evaluation, CHEAL (Lambsquarters, Common);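 also: higher means more injury with 8 approaching complete kill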
Excerpt: as §3
The preemergence herbicidal activity of the test compounds of the present invention is exemplified by the following tests in which the seeds of a variety of monocotyledonous and dicotyledonous plants are separately mixed with potting soil and planted on top of approximately one inch of soil in separate pint cups. […] The treated cups are then placed on greenhouse benches, watered and cared for in accordance with conventional greenhouse procedures. From four to five weeks after treatment, the tests are terminated and each cup is examined and rated according to the rating system provided in Example 40.
The compounds evaluated are reported by compound number given in Example 40.

[7] = system: ABUTILON THEOPHRASTI, MEDIC.; test: Postemergence herbicidal evaluation, ABUTH (Velvetleaf); conditions: for ABUTH, herbicide rating (0-9): rated four to five weeks after treatment, averaged
Experimental: as §1, §2, §3

ZEA MAYS L. = test: Postemergence herbicidal evaluation, ZEAMX (Corn, Field)
Experimental: as §1, §2, §3

CASSIA OBTUSIFOLIA, L. = test: Postemergence herbicidal evaluation, CASOB (Sicklepod); conditions: rated four to five weeks after treatment, averaged
Experimental: as §4, §2, §3

[…], PRESL. = Preemergence weed control under flooded paddy conditions, MOOVA (Monochoria); conditions: preemergence, 3-4 weeks after treatment
Experimental: as §3
(§5) Preemergence herbicidal activity under flooded paddy conditions is determined as follows: plant seeds or propagating organs are planted in the top 0.5 cm of silt loam soil in 32 oz. plastic containers with a diameter of 10.5 cm and no drainage holes. Water is added to these containers and maintained at 1.5 to 3 cm above the soil surface for the duration of the experiment. The test compounds are applied as aqueous/acetone mixtures 50/50 v/v pipetted directly into the flood water to give the equivalent of about 0.5, 0.25, 0.125 and 0.063 kg/ha of active ingredient. The treated containers are placed on greenhouse benches and cared for according to normal greenhouse procedures.- Three to four weeks after treatment the test is terminated and each container is examined and herbicidal effect rated according to the rating system provided in Example 40. The compounds evaluated are reported by compound number given in Example 40.
(§6) Plant species employed in this example are reported by header abbreviation, common name and scientific name.

GALIUM APARINE = test: Postemergence herbicidal evaluation, GALAP (Galium); conditions: rated four to five weeks after treatment, averaged
Experimental: as §4, §2, §3

[8] = system: ORYZA SATIVA, L. TEBONNET; test: Rice tolerance to post-transplant applications under flooded paddy conditions, ORYSAT (Rice, Tebonnet); conditions: post-transplant rice, 3-4 weeks after treatment
Experimental: as §3
The tolerance of transplanted rice to post-transplanted herbicide applications is determined as follows: two ten-day-old rice seedlings (CV. Tebonnet) are transplanted into a silt loam soil in 32 oz. plastic containers with a diameter of 10.5 cm and no drainage holes. After transplanting the containers are flooded and the water level is maintained at 1.5 to 3 cm above the soil surface. […] The treated containers are placed on greenhouse benches, watered such that the water level is maintained as stated above, and cared for according to normal greenhouse procedures. Three to four weeks after treatment the test is terminated and each container is examined and herbicidal effect rated according to the rating system provided in Example 40. The compounds evaluated are reported by compound number given in Example 40.
as §6

[9] = system: ECHINOCHLOA ORYZOIDES (ARD.)FRITSCH; test: Preemergence weed control under flooded paddy conditions, ECHORC (Watergrass (Calif.)); conditions: preemergence, 3-4 weeks after treatment
Experimental: as §3
as §5, with “The test compounds are applied as aqueous/acetone mixtures 50/50 v/v pipetted directly into the flood water to give the equivalent of about 0.5, 0.25, 0.125 and 0.063 kg/ha of active ingredient.” left out
as §6

Cn1c(=O)[nH]c(=O)n(-c2cc(Oc3c(F)cc(C(F)(F)F)cc3Cl)ccc2Br)c1=O [A, reference compound]
9.0: Herbicidal effect rating, IPOSS (IPOMOEA SPP.; 0.250 kg/ha) | Herbicidal effect rating, IPOSS (IPOMOEA SPP.; 0.500 kg/ha) | Herbicidal effect rating, CHEAL (CHENOPODIUM ALBUM, L. [1]; 0.063 kg/ha) | Herbicidal effect rating, CHEAL (CHENOPODIUM ALBUM, L. [1]; 0.125 kg/ha) | Herbicidal effect rating, CHEAL (CHENOPODIUM ALBUM, L. [1]; 0.250 kg/ha) | Herbicidal effect rating, CHEAL (CHENOPODIUM ALBUM, L. [1]; 0.500 kg/ha) | CHEAL (CHENOPODIUM ALBUM, L. [6]; Rate 0.063 kg/ha) | CHEAL (CHENOPODIUM ALBUM, L. [6]; Rate 0.125 kg/ha) | CHEAL (CHENOPODIUM ALBUM, L. [6]; Rate 0.250 kg/ha) | CHEAL (CHENOPODIUM ALBUM, L. [6]; Rate 0.500 kg/ha) | Herbicidal effect rating, ABUTH ([7]; 0.500 kg/ha)
6.0: Herbicidal effect rating, IPOSS (IPOMOEA SPP.; 0.063 kg/ha) | Herbicidal effect rating, ABUTH ([7]; 0.125 kg/ha) | Herbicidal effect rating, ABUTH ([7]; 0.250 kg/ha)
7.0: Herbicidal effect rating, IPOSS (IPOMOEA SPP.; 0.125 kg/ha)
5.0: Herbicidal effect rating, GLXMAW ([3]; 0.500 kg/ha) | Herbicidal effect rating, SETVI ([4]; 0.500 kg/ha) | Herbicidal effect rating, AMBEL ([5]; 0.500 kg/ha) | Herbicidal effect rating, ABUTH ([7]; 0.063 kg/ha)
1.0: Herbicidal effect rating, AMBEL ([5]; 0.063 kg/ha)
3.0: Herbicidal effect rating, GLXMAW ([3]; 0.125 kg/ha) | Herbicidal effect rating, GLXMAW ([3]; 0.250 kg/ha)
0.0: Herbicidal effect rating, ECHCG ([2]; 0.063 kg/ha) | Herbicidal effect rating, ECHCG ([2]; 0.125 kg/ha) | Herbicidal effect rating, SETVI ([4]; 0.063 kg/ha) | Herbicidal effect rating, ZEAMX (ZEA MAYS L.; 0.063 kg/ha) | Herbicidal effect rating, ZEAMX (ZEA MAYS L.; 0.125 kg/ha) | Herbicidal effect rating, ZEAMX (ZEA MAYS L.; 0.250 kg/ha)
2.0: Herbicidal effect rating, ECHCG ([2]; 0.250 kg/ha) | Herbicidal effect rating, ECHCG ([2]; 0.500 kg/ha) | Herbicidal effect rating, GLXMAW ([3]; 0.063 kg/ha) | Herbicidal effect rating, SETVI ([4]; 0.125 kg/ha) | Herbicidal effect rating, SETVI ([4]; 0.250 kg/ha) | Herbicidal effect rating, AMBEL ([5]; 0.125 kg/ha) | Herbicidal effect rating, ZEAMX (ZEA MAYS L.; 0.500 kg/ha)

COC(=O)Cn1c(=O)n(C)c(=O)n(-c2cc(Oc3ccc(Cl)cc3Cl)ccc2[N+](=O)[O-])c1=O [Compound 18, Methyl 3-[5-(2,4-dichlorophenoxy)-2-nitrophenyl]tetrahydro-5-methyl-2,4,6-trioxo-s-trizine-1(2H)-acetate]
9.0: IPOSS, herbicide rating (0-9) (IPOMOEA SPP.; Rate 0.125 kg/ha) | IPOSS, herbicide rating (0-9) (IPOMOEA SPP.; Rate 0.250 kg/ha) | IPOSS, herbicide rating (0-9) (IPOMOEA SPP.; Rate 0.500 kg/ha) | CHEAL, herbicide rating (0-9) (CHENOPODIUM ALBUM, L. [1]; Rate 0.125 kg/ha) | CHEAL, herbicide rating (0-9) (CHENOPODIUM ALBUM, L. [1]; Rate 0.250 kg/ha) | CHEAL, herbicide rating (0-9) (CHENOPODIUM ALBUM, L. [1]; Rate 0.500 kg/ha) | CASOB, herbicide rating (0-9) (CASSIA OBTUSIFOLIA, L.; Rate 0.125 kg/ha) | CASOB, herbicide rating (0-9) (CASSIA OBTUSIFOLIA, L.; Rate 0.250 kg/ha) | CASOB, herbicide rating (0-9) (CASSIA OBTUSIFOLIA, L.; Rate 0.500 kg/ha) | Herbicidal effect rating, MOOVA ([…], PRESL.; 0.063 kg/ha) | Herbicidal effect rating, MOOVA ([…], PRESL.; 0.125 kg/ha) | Herbicidal effect rating, MOOVA ([…], PRESL.; 0.250 kg/ha) | Herbicidal effect rating, MOOVA ([…], PRESL.; 0.500 kg/ha) | GALAP, herbicide rating (0-9) (GALIUM APARINE; Rate 0.125 kg/ha) | GALAP, herbicide rating (0-9) (GALIUM APARINE; Rate 0.250 kg/ha) | GALAP, herbicide rating (0-9) (GALIUM APARINE; Rate 0.500 kg/ha) | Herbicidal effect rating, ECHORC ([9]; 0.063 kg/ha) | Herbicidal effect rating, ECHORC ([9]; 0.125 kg/ha) | Herbicidal effect rating, ECHORC ([9]; 0.250 kg/ha) | Herbicidal effect rating, ECHORC ([9]; 0.500 kg/ha) | ABUTH, herbicide rating (0-9) ([7]; Rate 0.125 kg/ha) | ABUTH, herbicide rating (0-9) ([7]; Rate 0.250 kg/ha) | ABUTH, herbicide rating (0-9) ([7]; Rate 0.500 kg/ha)
3.0: Herbicidal effect rating, ORYSAT ([8]; 0.125 kg/ha) | Herbicidal effect rating, ORYSAT ([8]; 0.250 kg/ha)
4.0: Herbicidal effect rating, ORYSAT ([8]; 0.500 kg/ha)
2.0: Herbicidal effect rating, ORYSAT ([8]; 0.063 kg/ha)
